Patent publication US9211420B2, “Kit containing photosensitizing dyes” (Colgate-Palmolive Company, priority 2009, dated 2015)
“Also recorded” adds a separate entry of the source.

Tested on: TNFα of HEPM cells stimulated by IL-1β
Experiment: Cytokine concentration in IL-1β-stimulated cell culture after light plus photosensitizing dye
Assay type: cell-based, human
Conditions: Fast Green at 1000 ppm combined with light at 625 nm for 2 minutes (9 mW/cm^2, 1.1 J/cm^2)
Procedure: Cells used in this example include human embryonic palatal mesenchymal (HEFM) cells and oral keratinocytes OBA9 cells. The embodiments also can be used with other cells such as human gingival fibroblasts (HGF). Cells were seeded in 24-well plates and cultured until reaching a confluence above 80%. The confluent-stage cells were treated with stimulants such as IL-1β followed by light irradiation alone, or light irradiation combined with GRAS photosensitizing dye. The cells were either pre-incubated in photosensitizing dye before light exposure, or administered at the same time of light exposure. The cells were incubated in photosensitizing dyes for varied amounts of time, the concentration of photosensitizing dyes were varied, and the cell were irradiated with light for varied amounts of time per exposure, as well as irradiation either one time or multiple times, as described below. After irradiation, the cells were incubated at 37° C. The cell culture media was collected after a certain amount of time for cytokine analysis. The results tabulated below reveal that visible light (various wavelength, 380-700 nm) alone and photosensitizing dye irradiated with visible light (various wavelength, 380-700 nm) have anti-inflammation effect. […]

CCN(Cc1cccc(S(=O)(=O)[O-])c1)c1ccc(C(=C2C=CC(=[N+](CC)Cc3cccc(S(=O)(=O)[O-])c3)C=C2)c2ccc(O)cc2S(=O)(=O)[O-])cc1.[Na+].[Na+] [Fast Green, Fast Green FCF (FD&C Green No. 3)]
Effect on TNFα concentration in the in vitro cell culture: can decrease pro-inflammation cytokine TNFα concentration; also recorded: can reduce concentration of TNFα
